From the NIST ThermoML archive (doi:10.1021/je900596d)

Conditions: for mass density: Vibrating tube method

FC(F)=C(F)C(F)(F)F [hexafluoropropene]
Conditions | mass density [kg/m3] | vapor or sublimation pressure [kPa]
283.17 K, 6464.6 kPa, Liquid | 1420.83 | –
283.17 K, 6531.5 kPa, Liquid | 1421.22 | –
283.17 K, 6599.8 kPa, Liquid | 1421.62 | –
283.17 K, 6668.2 kPa, Liquid | 1422.01 | –
283.17 K, 6734.8 kPa, Liquid | 1422.36 | –
283.17 K, 6802 kPa, Liquid | 1422.82 | –
283.17 K, 6878.8 kPa, Liquid | 1423.17 | –
283.17 K, 6945.1 kPa, Liquid | 1423.6 | –
283.17 K, 7018.8 kPa, Liquid | 1423.92 | –
283.17 K, 7085.3 kPa, Liquid | 1424.29 | –
283.17 K, 7154.4 kPa, Liquid | 1424.62 | –
283.17 K, 7220.3 kPa, Liquid | 1425.09 | –
283.17 K, 7293 kPa, Liquid | 1425.48 | –
283.17 K, 7359.6 kPa, Liquid | 1425.9 | –
283.17 K, 7428.2 kPa, Liquid | 1426.22 | –
283.17 K, 7493.3 kPa, Liquid | 1426.61 | –
283.17 K, 7562.9 kPa, Liquid | 1426.95 | –
283.17 K, 7634.7 kPa, Liquid | 1427.34 | –
283.17 K, 7780.3 kPa, Liquid | 1428.05 | –
283.17 K, 7854.7 kPa, Liquid | 1428.44 | –
283.17 K, 7922.9 kPa, Liquid | 1428.82 | –
283.17 K, 7991.9 kPa, Liquid | 1429.21 | –
283.17 K, 8053 kPa, Liquid | 1429.55 | –
283.17 K, 8093.3 kPa, Liquid | 1429.79 | –
283.17 K, 8134.7 kPa, Liquid | 1429.94 | –
283.17 K, 8175.7 kPa, Liquid | 1430.23 | –
283.17 K, 8222.2 kPa, Liquid | 1430.51 | –
283.17 K, 8262.6 kPa, Liquid | 1430.66 | –
283.17 K, 8310.9 kPa, Liquid | 1430.87 | –
283.17 K, 8353.2 kPa, Liquid | 1431.08 | –
283.17 K, 8393.4 kPa, Liquid | 1431.32 | –
283.17 K, 8434 kPa, Liquid | 1431.55 | –
283.17 K, 8474.2 kPa, Liquid | 1431.73 | –
283.17 K, 8517.4 kPa, Liquid | 1432.02 | –
283.17 K, 8563.4 kPa, Liquid | 1432.23 | –
283.17 K, 8609.7 kPa, Liquid | 1432.53 | –
283.17 K, 8651.7 kPa, Liquid | 1432.69 | –
283.17 K, 8693.8 kPa, Liquid | 1432.88 | –
283.17 K, 8735.7 kPa, Liquid | 1433.12 | –
283.17 K, 8779.9 kPa, Liquid | 1433.38 | –
283.17 K, 8821.1 kPa, Liquid | 1433.52 | –
283.17 K, 8871.9 kPa, Liquid | 1433.93 | –
283.17 K, 8912.3 kPa, Liquid | 1434 | –
283.17 K, 8953.6 kPa, Liquid | 1434.33 | –
283.17 K, 8996.5 kPa, Liquid | 1434.45 | –
283.17 K, 9044.1 kPa, Liquid | 1434.75 | –
283.17 K, 9090.4 kPa, Liquid | 1435.02 | –
283.17 K, 9132.2 kPa, Liquid | 1435.25 | –
283.17 K, 9176.2 kPa, Liquid | 1435.35 | –
283.17 K, 9217 kPa, Liquid | 1435.66 | –
283.17 K, 9261 kPa, Liquid | 1435.85 | –
283.17 K, 9303.9 kPa, Liquid | 1436.08 | –
283.17 K, 9347.1 kPa, Liquid | 1436.32 | –
283.17 K, 9392.3 kPa, Liquid | 1436.51 | –
283.17 K, 9439 kPa, Liquid | 1436.78 | –
283.17 K, 9480.9 kPa, Liquid | 1436.91 | –
283.17 K, 9522.3 kPa, Liquid | 1437.19 | –
283.17 K, 9569.5 kPa, Liquid | 1437.37 | –
283.17 K, 9612.2 kPa, Liquid | 1437.57 | –
283.17 K, 9656.4 kPa, Liquid | 1437.81 | –
283.17 K, 9696.9 kPa, Liquid | 1438.08 | –
283.17 K, 9737.5 kPa, Liquid | 1438.29 | –
283.17 K, 9778 kPa, Liquid | 1438.42 | –
283.17 K, 9820 kPa, Liquid | 1438.63 | –
283.17 K, 9860.9 kPa, Liquid | 1438.96 | –
283.17 K, 9908.7 kPa, Liquid | 1439.08 | –
283.17 K, 9991.1 kPa, Liquid | 1439.48 | –
283.23 K, Liquid, Closed cell (Static) method | – | 459
283.24 K, 3.6 kPa, Fluid (supercritical or subcritical phases) | 0.14 | –
283.24 K, 4 kPa, Fluid (supercritical or subcritical phases) | 0.18 | –
283.24 K, 4.5 kPa, Fluid (supercritical or subcritical phases) | 0.18 | –
283.24 K, 5.1 kPa, Fluid (supercritical or subcritical phases) | 0.27 | –
283.24 K, 6 kPa, Fluid (supercritical or subcritical phases) | 0.3 | –
283.24 K, 7.2 kPa, Fluid (supercritical or subcritical phases) | 0.31 | –
283.24 K, 8.2 kPa, Fluid (supercritical or subcritical phases) | 0.4 | –
283.24 K, 9.1 kPa, Fluid (supercritical or subcritical phases) | 0.47 | –
283.24 K, 9.8 kPa, Fluid (supercritical or subcritical phases) | 0.52 | –
283.24 K, 10.8 kPa, Fluid (supercritical or subcritical phases) | 0.56 | –
283.24 K, 11.8 kPa, Fluid (supercritical or subcritical phases) | 0.65 | –
283.24 K, 12.6 kPa, Fluid (supercritical or subcritical phases) | 0.7 | –
283.24 K, 13.4 kPa, Fluid (supercritical or subcritical phases) | 0.85 | –
283.24 K, 14.4 kPa, Fluid (supercritical or subcritical phases) | 0.85 | –
283.24 K, 15.2 kPa, Fluid (supercritical or subcritical phases) | 0.87 | –
283.24 K, 16 kPa, Fluid (supercritical or subcritical phases) | 0.88 | –
283.24 K, 17 kPa, Fluid (supercritical or subcritical phases) | 0.98 | –
283.24 K, 18.1 kPa, Fluid (supercritical or subcritical phases) | 1.01 | –
283.24 K, 19.2 kPa, Fluid (supercritical or subcritical phases) | 1.12 | –
283.24 K, 20.3 kPa, Fluid (supercritical or subcritical phases) | 1.19 | –
283.24 K, 21.5 kPa, Fluid (supercritical or subcritical phases) | 1.25 | –
283.24 K, 22.7 kPa, Fluid (supercritical or subcritical phases) | 1.31 | –
283.24 K, 23.9 kPa, Fluid (supercritical or subcritical phases) | 1.47 | –
283.24 K, 25.1 kPa, Fluid (supercritical or subcritical phases) | 1.47 | –
283.24 K, 26.3 kPa, Fluid (supercritical or subcritical phases) | 1.57 | –
283.24 K, 27.6 kPa, Fluid (supercritical or subcritical phases) | 1.66 | –
283.24 K, 28.8 kPa, Fluid (supercritical or subcritical phases) | 1.74 | –
283.24 K, 30 kPa, Fluid (supercritical or subcritical phases) | 1.8 | –
283.24 K, 31.2 kPa, Fluid (supercritical or subcritical phases) | 1.87 | –
283.24 K, 32.6 kPa, Fluid (supercritical or subcritical phases) | 1.92 | –
283.24 K, 33.8 kPa, Fluid (supercritical or subcritical phases) | 2.04 | –
283.24 K, 35.1 kPa, Fluid (supercritical or subcritical phases) | 2.16 | –
283.24 K, 36.3 kPa, Fluid (supercritical or subcritical phases) | 2.23 | –
283.24 K, 37.6 kPa, Fluid (supercritical or subcritical phases) | 2.25 | –
283.24 K, 38.8 kPa, Fluid (supercritical or subcritical phases) | 2.33 | –
283.24 K, 40.1 kPa, Fluid (supercritical or subcritical phases) | 2.39 | –
283.24 K, 41.4 kPa, Fluid (supercritical or subcritical phases) | 2.51 | –
283.24 K, 42.6 kPa, Fluid (supercritical or subcritical phases) | 2.65 | –
283.24 K, 43.9 kPa, Fluid (supercritical or subcritical phases) | 2.74 | –
283.24 K, 45.1 kPa, Fluid (supercritical or subcritical phases) | 2.76 | –
283.24 K, 46.4 kPa, Fluid (supercritical or subcritical phases) | 2.84 | –
283.24 K, 47.7 kPa, Fluid (supercritical or subcritical phases) | 2.93 | –
283.24 K, 49 kPa, Fluid (supercritical or subcritical phases) | 3.04 | –
283.24 K, 50.2 kPa, Fluid (supercritical or subcritical phases) | 3.09 | –
283.24 K, 52.8 kPa, Fluid (supercritical or subcritical phases) | 3.28 | –
283.24 K, 55.4 kPa, Fluid (supercritical or subcritical phases) | 3.44 | –
283.24 K, 58.1 kPa, Fluid (supercritical or subcritical phases) | 3.61 | –
283.24 K, 60.8 kPa, Fluid (supercritical or subcritical phases) | 3.81 | –
283.24 K, 63.5 kPa, Fluid (supercritical or subcritical phases) | 3.98 | –
283.24 K, 69.3 kPa, Fluid (supercritical or subcritical phases) | 4.38 | –
283.24 K, 72.2 kPa, Fluid (supercritical or subcritical phases) | 4.52 | –
283.24 K, 75.2 kPa, Fluid (supercritical or subcritical phases) | 4.75 | –
283.24 K, 78.1 kPa, Fluid (supercritical or subcritical phases) | 4.95 | –
283.24 K, 81.2 kPa, Fluid (supercritical or subcritical phases) | 5.2 | –
283.24 K, 84.2 kPa, Fluid (supercritical or subcritical phases) | 5.34 | –
283.24 K, 87.2 kPa, Fluid (supercritical or subcritical phases) | 5.58 | –
283.24 K, 90.3 kPa, Fluid (supercritical or subcritical phases) | 5.77 | –
283.24 K, 93.4 kPa, Fluid (supercritical or subcritical phases) | 6 | –
283.24 K, 96.5 kPa, Fluid (supercritical or subcritical phases) | 6.19 | –
283.24 K, 99.6 kPa, Fluid (supercritical or subcritical phases) | 6.44 | –
283.24 K, 102 kPa, Fluid (supercritical or subcritical phases) | 6.55 | –
283.24 K, 104.4 kPa, Fluid (supercritical or subcritical phases) | 6.69 | –
283.24 K, 106.7 kPa, Fluid (supercritical or subcritical phases) | 6.88 | –
283.24 K, 109.2 kPa, Fluid (supercritical or subcritical phases) | 7.05 | –
283.24 K, 111.6 kPa, Fluid (supercritical or subcritical phases) | 7.23 | –
